In patent EP0364584A1, “ANTIDOTE FOR ORGANIC PHOSPHORUS COMPOUND POISONING” (priority 1988, dated 1989):
Like-named read-outs stand apart in the source and are kept apart here.

Legend:
[1] = tested on: Gehirn der Tiere (Ratten); experiment: Morphological and histochemical examination of the brain; format: in vivo; details: Dosen 5, 20 und 50 mg/kg; no haemorrhages
Procedure: Der Grad deren Ausgeprägtheit wird etwas höher und länger in den Gehirnstrukturen (3 Tage) bei einer Dosis des erfindungsgemässen Arzneimittels von 50 mg/kg aufrechterhalten, als bei Dosen von 5 und 20 mg/kg. Die Kapillarhyperämie wird durch keine Blutergüsse und Störungen des argyrophilen Gestells der Hirnblutgefässe begleitet. Die morphologische und histochemische Untersuchung des Rattengehirns, denen das erfindungsgemässe Arzneimittel in Dosen von 5, 20 und 50 mg/kg eingeführt wurde, gestattet, die erhaltenen Veränderungen als funktionelle einzuschätzen (die Schwankung der Aktivität der Azetylcholinesterase und der Butyrylcholinesterase, die […] Hyperämie), die von einer deutlichen Neurotropie des Arzneimittels zeugen.

[2] = Acute toxicity, single administration, mice; details: mouse, in vivo, Mäuse, read-out: LD50 (mg/kg) und deren zuverlässige Grenzen P = 0,05
Source text: (§1) Die Toxizität des erfindungsgemässen Arzneimittels bei der einmaligen Einführung (die akute Toxizität) wurde an geschlechtsreifen Tieren (an Mäusen, Ratten, Katzen, Hunden) bestimmt. Die Analyse der experimentellen Angaben für Mäuse und Ratten wurde nach der Methode der Probit-Analyse nach Litchfield und Wilcoxon, und für Hunde und Katzen nach der Methode der Anreicherung der Frequenz nach Behrens durchgeführt.
(§2) Die Toxizitätsparameter LD50 wurden für Mause bei der intraperitonealen und subkutanen Einführung, für Ratten bei der subkutanen, intramuskulären und enteralen Einführung, für Katzen bei der intramuskulären Einführung und für Hunde bei der subkutanen Einführung bestimmt.

[3] = biological target: T1, Azetylcholinesterase des Rattengehirns (Rattus norvegicus, UniProt P37136); experiment: Histochemical study of acetylcholinesterase activity in rat brain; format: in vivo, Ratten
T1 construct: Azetyl- und Buty rylcholinesterase des Rattengehirns; from tissue; host or cells: rat brain sections after in vivo dosing
Source text: (§3) Nach den histochemischen Methoden wurde der Einfluss des erfindungsgemässen Arzneimittels auf die Aktivität der Azetyl- und Buty rylcholinesterase des Rattengehirns untersucht und es wurde gezeigt, dass dieser von der Dosis des Arzneimittels und der Einführungszeit abhängt. […] Die Fermenthemmung wird bis 2 Stunden lang beobachtet, nachher folgt eine unbedeutende Aktivierung der Azetylcholinesterase, die bis 24 Stunden aufrechterhalten bleibt.

[4] = Content of the drugs in blood and brain after intramuscular administration (Askew method); format: in vivo, Ratten; details: for concentration at 2 h: 2 St., read-out: Konzentration (µg/g) 2 St. (converted); for concentration at 3 h: 3 St., read-out: Konzentration (µg/g) 3 St.; for concentration at 5 min: read-out: Konzentration (µg/g) 5 min; for concentration at 20 min: read-out: Konzentration (µg/g) 20 min (converted); for concentration at 0.5 h: 30 min, read-out: Konzentration (µg/g) 30 min; for concentration at 1 h: read-out: Konzentration (µg/g) I St.; for concentration at 10 min: IO min, read-out: Konzentration (µg/g) IO min (converted)
Procedure: Mit Hilfe der Methode von Askew (1956) wurde in der Dynamik der Gehalt des erfindungsgemäßen Arzneimittels im Blut und Gehirn der Tiere untersucht. Die Untersuchungen wurden im Vergleich zum bekannten Präparak TMB-4 vorgenommen. Die Geschwindigkeit des Eindringens beider Präparate ins Blut und deren Konzentration wurden bei der-intramuskulären Einführung in Dosen von 20 ..und 50 mg/kg und der Gehirnspiegel - in einer Dosis von 50 mg/kg bestimmt. […]
Es wurde festgestellt, daß die Präparate schnell (nach 5 min) von der Einführungsstelle ins Blut eindringen, dabei wurde unabhängig von der Prüfdosis der Präparate deren Maximalgehalt im Blut 20 min nach der Einführung beobachtet, zwar erhöhte die Vergrößerung der Dosis der Präparate bis 50 mg/kg wesentlich deren Konzentrationsniveau während der ganzen Beobachtungsfrist.
Die im Vergleich zu TMB-4 durchgeführten Untersuchungen haben ergeben, dass während der ersten Stunde der Blutgehalt und das Anwachsen der Konzentrationen beider Präparate gleich waren. […] Die Untersuchungsergebnisse sind in der Tabelle 3 angeführt.
Nach den Ergebnissen der durchgeführten Untersuchungen wurde festgestellt, dass das erfindungsgemässe Arz- neimittel bei der intramuskulären Einführung schnell ins Blut und Gehirn des Tieres eindringt und zum Unterschied von TMB-4 eine längere Zeit im 3lutstrom zirkuliert und von 5 min an bis 4 Stunden Beobachtung im Gehirn in bedeutend grösseren Mengen enthalten ist.

[5] = biological target: T2, Azetylcholinesterase des menschlichen Bluts (Homo sapiens, UniProt P22303); experiment: Reactivation in vitro of erythrocyte cholinesterase inhibited by organophosphorus compounds (potentiometric titration); format: biochemical; details: reactivator 1.10^-4 M01/1, 25°C, pH 7,5
T2 construct: Cholinesterase des Grundgerüstes der Erythrozyten des menschlichen Bluts; from tissue; host or cells: human erythrocyte stroma (ghosts)

[6] = Acute toxicity, single administration, dogs; details: dog, in vivo, sc; Hunde, subkutan; read-out: LD50 (mg/kg) und deren zuverlässige Grenzen P = 0,05
Source text: as §1, §2

Versuchstiere = experiment: Prolonged administration to test animals (blood, urine); format: in vivo
Source text: Nur zu einer späteren Beobachtungsperiode (4 bis 9 Tage) wurde eine unbedeutende Erhöhung der Gesamtleukozytenzahl nachgewiesen. Am 3. Tag trat auch eine geringe Aktivierung der Blutcholinesterase auf, in den nachfolgenden Beobachtungstagen (4 bis 9 Tage) überstieg jedoch die Aktivität des Ferments das Ausgangsniveau nicht.
Die morpholigischen Untersuchungen der inneren Organe der Versuchstiere legten keine pathologischen Veränderungen im Vergleich zur Kontrolle an den Tag.

[7] = biological target: T3, Butyrylcholinesterase des Rattengehirns (Rattus norvegicus, UniProt Q9JKC1); experiment: Histochemical study of butyrylcholinesterase activity in rat brain; format: in vivo, Ratten
T3 construct: from tissue; host or cells: rat brain sections (glia, capillaries) after in vivo dosing
Source text: as §3
Es muss hervorgehoben werden, dass die beobachteten Veränderungen der Aktivität des Ferments von keinem deutlich ausgeprägten Charakter sind.

[8] = tested on: kardiovaskuläre System und die Atmung; experiment: Effect on cardiovascular system, respiration and muscle; format: in vivo
[9] = Acute toxicity, single administration, rats; details: rat, in vivo, Ratten, read-out: LD50 (mg/kg) und deren zuverlässige Grenzen P = 0,05
[10] = rat, blood, im, Blut, Dosis 20 mg/kg intramuskulär, Ratten
[11] = rat, blood, im, Blut, Dosis 50 mg/kg intramuskulär, Ratten
[12] = rat, brain, im, Gehirn, Dosis 50 mg/kg intramuskulär, Ratten

T1 sequence (P37136 32-614): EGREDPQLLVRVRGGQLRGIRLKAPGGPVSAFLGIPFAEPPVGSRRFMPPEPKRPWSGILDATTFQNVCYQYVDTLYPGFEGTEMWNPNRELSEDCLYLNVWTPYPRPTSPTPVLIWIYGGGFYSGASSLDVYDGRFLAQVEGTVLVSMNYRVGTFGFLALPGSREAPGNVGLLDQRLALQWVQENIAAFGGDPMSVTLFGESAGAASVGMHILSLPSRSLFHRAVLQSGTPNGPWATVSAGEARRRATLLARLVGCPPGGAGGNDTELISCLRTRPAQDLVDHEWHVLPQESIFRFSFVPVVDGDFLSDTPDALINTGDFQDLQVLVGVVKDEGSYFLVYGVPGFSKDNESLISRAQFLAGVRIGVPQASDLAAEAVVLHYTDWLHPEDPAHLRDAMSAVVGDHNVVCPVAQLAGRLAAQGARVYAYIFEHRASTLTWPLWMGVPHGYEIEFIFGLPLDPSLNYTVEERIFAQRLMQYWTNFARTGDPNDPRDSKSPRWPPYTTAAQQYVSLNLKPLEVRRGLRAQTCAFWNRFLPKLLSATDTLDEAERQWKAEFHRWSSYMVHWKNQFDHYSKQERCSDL
T2 sequence (P22303 other isoform, or with tags, fused parts or gaps): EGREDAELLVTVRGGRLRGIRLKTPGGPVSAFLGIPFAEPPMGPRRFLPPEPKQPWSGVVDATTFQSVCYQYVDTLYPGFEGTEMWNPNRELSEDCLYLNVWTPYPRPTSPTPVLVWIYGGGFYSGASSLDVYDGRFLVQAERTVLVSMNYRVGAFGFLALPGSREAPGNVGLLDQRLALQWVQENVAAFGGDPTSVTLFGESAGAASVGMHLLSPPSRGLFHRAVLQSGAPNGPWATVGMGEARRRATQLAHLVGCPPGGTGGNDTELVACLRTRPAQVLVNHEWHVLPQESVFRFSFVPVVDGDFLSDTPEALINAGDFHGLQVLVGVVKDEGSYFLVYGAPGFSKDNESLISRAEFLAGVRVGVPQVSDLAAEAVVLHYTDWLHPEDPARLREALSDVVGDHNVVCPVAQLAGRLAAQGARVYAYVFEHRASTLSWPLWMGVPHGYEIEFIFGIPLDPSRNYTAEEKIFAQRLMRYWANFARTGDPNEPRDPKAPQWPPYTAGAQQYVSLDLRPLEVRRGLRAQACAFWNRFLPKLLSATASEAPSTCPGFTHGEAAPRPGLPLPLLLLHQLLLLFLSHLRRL
T3 sequence (Q9JKC1 24-597): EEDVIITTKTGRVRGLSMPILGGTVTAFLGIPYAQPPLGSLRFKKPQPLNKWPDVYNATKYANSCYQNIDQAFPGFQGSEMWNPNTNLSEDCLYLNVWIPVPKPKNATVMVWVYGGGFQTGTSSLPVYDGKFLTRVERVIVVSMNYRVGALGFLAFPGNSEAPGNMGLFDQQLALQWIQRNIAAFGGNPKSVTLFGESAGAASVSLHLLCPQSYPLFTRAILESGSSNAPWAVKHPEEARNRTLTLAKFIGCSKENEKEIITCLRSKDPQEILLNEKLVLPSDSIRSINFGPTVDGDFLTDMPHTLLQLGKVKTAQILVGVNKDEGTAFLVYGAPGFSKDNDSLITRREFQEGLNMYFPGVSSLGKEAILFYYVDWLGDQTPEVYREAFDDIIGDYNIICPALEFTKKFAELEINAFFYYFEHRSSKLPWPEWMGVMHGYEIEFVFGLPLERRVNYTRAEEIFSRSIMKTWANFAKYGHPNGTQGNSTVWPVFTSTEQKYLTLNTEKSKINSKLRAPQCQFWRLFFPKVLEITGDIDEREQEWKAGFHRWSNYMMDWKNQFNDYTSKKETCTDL

## C=CC[n+]1ccccc1C=NO [das erfindungsgemässe Arzneimittel, N-Allyl-2-pyridinaldoxiinbromid]
[1]
  Histochemische Untersuchungen des Gehirns: allgemeine unbedeutende Kapillarhyperämie
[2]; ip, intraperitoneal
  LD50: 64 mg/kg
[2]; sc, subkutan
  LD50: 115 mg/kg
[3]; Dosis 5 mg/kg, histochemical
  Einfluss auf die Aktivität der Azetyl- und Butyrylcholinesterase des Rattengehirns: keine Abweichung der Fermentaktivität von der Norm
[3]; Dosis 20 mg/kg, except white matter of hemispheres and Formatio reticularis neurons (inhibition 30 min bis 2 Stunden)
  Einfluss auf die Aktivität der Azetylcholinesterase: verändert es auch im wesentlichen die Aktivität der Azetylcholinesterase nicht
[3]; Dosis 50 mg/kg, several brain structures, inhibition bis 2 Stunden, then slight activation bis 24 Stunden
  Einfluss auf die Aktivität der Azetylcholinesterase: deutlicher ausgeprägte Veränderungen der Azetylcholinesteraseaktivität
[3]; Dosis 20 und 50 mg/kg
  Aktivität der Azetylcholinesterase in den Neuronen der Grosshirnrinde: keine Veränderungen der Aktivität der Azetylcholinesterase festgestellt
[4]; Blut, Dosis 50 mg/kg intramuskulär, I St., Ratten
  Konzentration (µg/g) I St.: IO,I
[4]; late time points (printed: 3 und 1 Stunden)
  Konzentrationsniveau im Blut im Vergleich zu TMB-4: ungefähr um das Doppelte
[4]; [10]
  concentration at 2 h: 2.3 µg/g
  concentration at 3 h: 0.92 µg/g
  concentration at 5 min: 2.95 µg/g
  concentration at 20 min: 5.16 µg/g
  concentration at 0.5 h: 4.7 µg/g
  concentration at 10 min: 4.95 µg/g
[4]; rat, blood, im, Blut, Dosis 20 mg/kg intramuskulär, I St., Ratten
  concentration at 1 h: 4.4 µg/g
[4]; [11]
  concentration at 2 h: 4.6 µg/g
  concentration at 3 h: 3.6 µg/g
  concentration at 5 min: 16.2 µg/g
  concentration at 20 min: 18 µg/g
  concentration at 0.5 h: 12.7 µg/g
  concentration at 10 min: 19 µg/g
[4]; rat, blood, im, intramuskuläre Einführung, summary statement, read-out: Maximalniveau erreicht nach
  Tmax: 20 to 30 min
[4]; [12]
  concentration at 2 h: 1.12 µg/g
  concentration at 3 h: 0.64 µg/g
  concentration at 5 min: 2.64 µg/g
  concentration at 20 min: 4 µg/g
  concentration at 0.5 h: 3.75 µg/g
  concentration at 10 min: 5.65 µg/g
[4]; rat, brain, im, Gehirn, Dosis 50 mg/kg intramuskulär, I St., Ratten
  concentration at 1 h: 2.06 µg/g
[5]; 0.5 h, pH 7, inhibited with O,O-Dimethyl-(2,2,2-trichlor-1-oxyäthyl) phosphonat, 0,5 h, read-out: Aktivität der Azetylcholinesterase in % (Reaktivationszeit in Stunden) 0,5
  activity at 100 µM: 53.6%
[5]; 0.5 h, pH 7, inhibited with O,O-Dimethyl-S-(1,2-dikarbäthoxyäthyl)-dithiophosphat, 0,5 h, read-out: Aktivität der Azetylcholinesterase in % (Reaktivationszeit in Stunden) 0,5
  activity at 100 µM: 48.1%
[5]; 1 h, pH 7, inhibited with O,O-Dimethyl-(2,2,2-trichlor-1-oxyäthyl) phosphonat, 1 h, read-out: Aktivität der Azetylcholinesterase in % (Reaktivationszeit in Stunden) 1
  activity at 100 µM: 72.2%
[5]; 1 h, pH 7, inhibited with O,O-Dimethyl-S-(1,2-dikarbäthoxyäthyl)-dithiophosphat, 1 h, read-out: Aktivität der Azetylcholinesterase in % (Reaktivationszeit in Stunden) 1
  activity at 100 µM: 75%
[5]; 2 h, pH 7, inhibited with O,O-Dimethyl-(2,2,2-trichlor-1-oxyäthyl) phosphonat, 2 h, read-out: Aktivität der Azetylcholinesterase in % (Reaktivationszeit in Stunden) 2
  activity at 100 µM: 72.3%
[5]; 2 h, pH 7, inhibited with O,O-Dimethyl-S-(1,2-dikarbäthoxyäthyl)-dithiophosphat, 2 h, read-out: Aktivität der Azetylcholinesterase in % (Reaktivationszeit in Stunden) 2
  activity at 100 µM: 78.1%
[6]
  LD50: 112 mg/kg
Versuchstiere; dauernde Anwendung, slight rise of leukocytes at 4 bis 9 Tage
  Einfluss auf den Bestand des peripheren Bluts: keinen merklichen Einfluss
Versuchstiere; längere Einführung
  Harnbestand: veränderte nicht den Harnbestand
[7]; bis 2 Tage lang, dose dependent, more marked at 50 mg/kg
  Aktivität der Butyrylcholinesterase in den Kapillaren aller Bildungen des Gehirns: unbedeutende Aktivierung des Ferments
[7]; in allen untersuchten Konzentrationen
  Aktivität der Butyrylcholinesterase in den Nervenkittzellen des Gehirns: die Aktivität der Butyrylcholinesterase in den Nervenkittzellen des Gehirns nicht
[8]; in vivo
  myotrope Wirkung: keine myotrope Wirkung
[8]; intravenöse Einführung (12 bis 15 mg/kg)
  arterieller Blutdruck: setzte unbedeutend für eine kürzere Zeit den arteriellen Blutdruck herab
[8]; subkutane Einführung in hohen Dosen (10 und 20 mg/kg)
  Einfluss auf das kardiovaskuläre System und die Atmung: keinen Einfluss
[9]; ip, intraperitoneal
  LD50: 135 mg/kg
[9]; po, enteral
  LD50: 260 mg/kg
[9]; sc, subkutan
  LD50: 200 mg/kg
